Test results: ChEMBL document CHEMBL1149014, “Antineoplastic agents, 118. Isolation and structure of bryostatin 9” (1986)
≈ marks a conversion by molar mass, not a printed value.

How the values were obtained:
Format in all cases: functional
P388 [1] = experiment: Cytotoxicity against mouse P388 cells
P388 [2] = experiment: In vivo antitumor activity against mouse P388 cells at 46 to 185 ug/kg relative to control
P388 [3] = experiment: In vivo antitumor activity against mouse P388 cells assessed as cell life extension at 80 ug/kg

Structure (SMILES)	ED50 (P388 [1]) [×10⁻⁵ ug/ml]	T/C (P388 [2]) [%]	EC50 (P388 [1]; Mus musculus, P388, read-out: ED50 (the source's name)) [ng/mL]	Activity (P388 [3]) [%]
CCCC(=O)O[C@H]1C[C@H]2C[C@@H](O)CC(=O)O[C@@H]([C@@H](C)O)C[C@@H]3C/C(=C\C(=O)OC)[C@H](OC(C)=O)[C@@](O)(O3)C(C)(C)/C=C/[C@H]3C/C(=C\C(=O)OC)C[C@@H](C[C@](O)(O2)C1(C)C)O3 [BRYOSTATIN 6]	1	139		
CCCC(=O)O[C@H]1/C(=C/C(=O)OC)C[C@H]2C[C@H]([C@@H](C)O)OC(=O)C[C@H](O)C[C@@H]3C[C@H](OC(C)=O)C(C)(C)[C@](O)(C[C@@H]4C/C(=C/C(=O)OC)C[C@H](/C=C/C(C)(C)[C@]1(O)O2)O4)O3 [BRYOSTATIN 9]			1.2 (≈ 1.41 nM)	40
